Measured values published in patent publication US20260137698A1, “CYCLIN-DEPENDENT KINASE 7 INHIBITORS” (JOINT STOCK COMPANY «BIOCAD», priority 2022, published 2026).

Tests used:
[1] = test system: MDA-MB-468 (triple negative breast cancer); assay: BrdU incorporation into DNA in MDA-MB-468 cells; format: cell-based; conditions: Homo sapiens, mean of multiple measurements
Excerpt: Upon adding bromodeoxyuridine (BrdU) to dividing cells, Thymidine is replaced by its analogue, BrdU, and BrdU is incorporated into DNA. Thus, BrdU incorporated into DNA characterizes the intensity of DNA replication and ongoing S phase of the cell cycle. Reduced incorporation of bromodeoxyuridine into DNA under the action of the compounds characterizes a slowdown in the cell cycle and DNA replication.
The ability of the CDK7 inhibitors according to the present invention to inhibit the incorporation of BrdU into DNA was evaluated in a cell test on continuous cell cultures: MDA-MB-468 (triple negative breast cancer, ATCC® HTB-132™) using a BrdU detection kit (Roche, order no. 11 669 915 001)). The cells were grown in DMEM medium (PanEco, order no. C330π). The basal growth medium was enriched with L-glutamine at a concentration of 2 mM (PanEco, order no. Φ032) and 10% fetal bovine serum (Gibco, order no. 16140-071). MDA-MB-468 adherent cells were detached from plastic with a solution of trypsin-EDTA (PanEco, order no. Π039π), the solution was then inactivated by a DMEM complete medium, centrifuged at 1000 RPM (Eppendorf, 5804 R), a suspension of cells was prepared in a DMEM complete medium, introduced into 96-well culture plates (Corning Inc, order no. 3599) at 4×10^3 cells in 75 μl of medium per well. Test compounds were dissolved in DMSO and diluted with a DMEM complete medium to a final concentration ranging from 0.5 μM to 2 μM. Serum-free growth medium was removed from plate wells, and solutions comprising diluted compounds in the volume of 100 μl in basal growth medium were added. Candidates were introduced into the plate wells with cells in triplicates (the final concentration of DMSO was no more than 1%) and incubated at 37° C. in an incubator with 5% CO2 for 24 hours. Following incubation, 10 μl of solution of BrdU at a concentration of 10 μM was added to wells, the contents of the plates were agitated on an orbital shaker (Biosan, Latvia), and incubated for additional 72 hours at 37° C. in an incubator with 5% CO2. Incorporated BrdU was then detected according to the guidelines of the kit manufacturer. […] 100 μl of substrate solution was introduced into each analyzed well and incubated for 3 minutes at room temperature (+15-25° C.) on an orbital shaker (Biosan, Latvia) and for another 5-7 minutes without stirring.
The amount of incorporated BrdU was detected on the Infinite M200Pro microplate spectrophotometer (Tecan Group Ltd, Switzerland) by measuring the luminescent signal. IC50 value was calculated using the Magellan software (Tecan Group Ltd, Switzerland) by approximating experimental points by four-parameter model with the optimization by Levenberg-Marquardt.

[2] = test system: NCI-H69 xenografts (small cell lung cancer); assay: Antitumor activity in vivo, subcutaneous NCI-H69 xenograft model; design: species or system BALB/c Nude mice
Protocol: The antitumor activity of CDK7_1187 in vivo was evaluated on a subcutaneous xenograft model of the NCl-H69 line (small cell lung cancer, ATCC® HTB-119™) transplanted to BALB/c Nude mice.
NCl-H69 cell line was cultured in RPMI-1640 medium (PanEco, Russia) with enrichment of the basal growth medium with L-glutamine at a concentration of 2 mM (PanEco, Russia) and 10% fetal bovine serum (Gibco, Thermo Fisher Scientific, USA).
The study used 20 BALB/c Nude mice (females) obtained from the Federal State Budgetary Scientific Institution “Federal Research Center Institute of Cytology and Genetics, Siberian Branch of Russian Academy of Sciences” (ICG SB RAS). BALB/c Nude mice were subcutaneously administered into the right lateral side of the body with […] of suspension containing 5×10^6 NCI-H69 tumor cells and Matrigel (Corning® Matrigel® Basement Membrane Matrix) at 1:1 ratio.
Linear dimensions of the tumor were determined using an electronic caliper. Volume of the tumor node was determined by the formula (1):
[formula] • where L and W are large and small diameters of the tumor node, respectively.
The efficacy of test product was measured by the index of tumor growth inhibition (TGI, %) calculated according to the formula (2):
[formula] • where Vc and Vp are mean volumes of the tumor node in the control group and the group of animals that received the test substance, respectively.
After achieving an average tumor volume of 130 mm^3, animals were divided into 2 groups of 10 animals, volume of the tumor node was used as a randomization criterion. The day of the first administration of the product was designated as day 0.
Test substance CDK7_1187 was administered intragastrically at a dose of 6 mg/kg daily, for 21 days. Before each administration, CDK7_1187 was diluted in 5% solution of glucose (Solopharm, Russia) and 0.1% solution of DMSO (Sigma, USA). The control group received a 5% solution of glucose and a 0.1% solution of DMSO in an analogous volume.
Statistical analysis was carried out using the GraphPad Prism 9 software package. Mann-Whitney U test was employed to assess the significance of differences when comparing the volumes of tumor nodes. Differences were identified as significant if p<0.05.

| SMILES | IC50 [1] | tumor volume versus control group ([2]; 6 mg/kg daily, days 17 and 21, Mann-Whitney p<0.05) | index of tumor growth inhibition (TGI) ([2]; BALB/c Nude mice, 6 mg/kg intragastrically daily for 21 days, end of the observation period) | TGI index ([2]; Day 9, intragastrically 6 mg/kg daily) | TGI index ([2]; Day 13, intragastrically 6 mg/kg daily) | TGI index ([2]; Day 17, intragastrically 6 mg/kg daily) | TGI index ([2]; Day 21, intragastrically 6 mg/kg daily) |
| --- | --- | --- | --- | --- | --- | --- | --- |
| CN1CCCc2c(-c3nc(N[C@H]4CCC(C)(C)NC4)ncc3C(F)(F)F)c[nH]c2C1=O [CDK7_1187, 3-(2-{[(3S)-6,6-dimethylpiperidin-3-yl]amino}-5-(trifluoromethyl)py-rimidin-4-yl)-7-methyl-1H,4H,5H,6H,7H, 8H-pyrrolo[2,3-c]azepin-8-one] | 14 nM | statistically significantly less | 48% | 10% | 36% | 40% | 48% |
| CC1(C)CC[C@H](Nc2ncc(C(F)(F)F)c(-c3c[nH]c4c3CCCN(C3CC3)C4=O)n2)CN1 [CDK7_1225, 7-cyclopropyl-3-(2-{[(3S)-6,6-dimethylpiperidin-3-yl]amino}-5-(trifluoromethyl)py-rimidin-4-yl)-1H,4H,5H,6H,7H, 8H-pyrrolo[2,3-c]azepin-8-one] | 24 nM |  |  |  |  |  |  |
| CC(C)N1CCCc2c(-c3nc(N[C@H]4CCC(C)(C)NC4)ncc3C(F)(F)F)c[nH]c2C1=O [CDK7_1229, 3-(2-{[(3S)-6,6-dimethylpiperidin-3-yl]amino}-5-(trifluoromethyl)py-rimidin-4-yl)-7-(propan-2-yl)-1H,4H,5H,6H,7H, 8H-pyrrolo[2,3-c]azepin-8-one] | 28 nM |  |  |  |  |  |  |
| O=C1c2[nH]cc(-c3nc(N[C@H]4CCC5(CC5)NC4)ncc3C(F)(F)F)c2CCCN1C1CC1 [CDK7_1276, 3-(2-{[(6S)-4-azaspiro[2.5]octan-6-yl]amino}-5-(trifluoromethyl)py-rimidin-4-yl)-7-cyclopropyl-1H,4H,5H,6H,7H, 8H-pyrrolo[2,3-c]azepin-8-one] | 2 nM |  |  |  |  |  |  |
